Laboratory results as given in patent publication US20170368182A1, “Pharmaceutical Semi-Solid Gels with Entrapped Calcium Phosphate Nanoparticles” (Belmont University, priority 2014, published 2017).
Where a name gives a salt, the structure may show the parent alone. Read-outs that look alike come from different tables or passages of the source.

Legend:
[1] = Example 2; Na CMC value theoretical; cited from earlier work
[2] = Osmolality contribution of gel components; assay type: physicochemical; details: 0.68% timolol maleate; 0.5% carbomer 980 calculated from 0.3% carbomer 934
Experimental: The exact osmolality 0.5% carbomer 980 gel was not known, but it was calculated using the osmolality of 0.3% carbomer 934.^19 The 0.68% timolol maleate contributes 31.4 mOsm and the carbomer contributes approximately 42 mOsm. To make the gel isotonic, 4.1 g of 5% dextrose would need to be added to obtain an isotonic gel with a tonicity of 300 mOsm. However, the results of this experiment will be compared to the results of a similar experiment using carboxymethylcellulose, CMC. […] The gel was thoroughly mixed by hand and then with a stir bar and magnetic stirrer to ensure uniformity.
Also, to make the concentrated 9% of the polymer to create enough for 3 gels, 9 g of the polymer was added to a 250 ml beaker. The polymer was hydrated with distilled water to 180 ml which took 1 hour to dissolve through the use of magnetic stirrer and stirring by hand. Next, 0.68 g of timolol maleate salt was added to the beaker with 60 ml of Na CMC. The contents were then q.s to a final concentration of 100 ml. […] Timolol maleate has osmolality of 31 mOsm and Na CMC has a theoretical osmolality of 470 mOsm which mitigated the need to add dextrose to reach osmolality.^18 The pH was assessed by using an electrode and the pH was between 7-8 which prevented the need to add sodium hydroxide to get to the physiological pH. […]

[3] = low viscosity ophthalmic solutions; cited from earlier work
[4] = first seven years of use / commercial production of ophthalmic product, cited from earlier work

CC(C)(C)NC[C@H](O)COc1nsnc1N1CCOCC1 [Timolol maleate]
osmolality [1]: 31 mOsm | osmolality contribution [2]: 31.4 mOsm | share of Timolol that reaches intraocular tissues [3]: less than 5% | deaths [4]: Thirty two | deaths ([4]; listed as timolol maleate): ~37
